Data taken from patent US20200010910A1, “Cytotoxic Chemotherapy-Based Predictive Assays for Acute Myeloid Leukemia” (The Regents of The University of California, priority 2017, published 2020).

Tests used:
5637 [1] = assay: MTT assay IC50, bladder cancer cell line; type: cell-based, human; details: 72 hours
Method: Thus, we measured the IC50 of the six NSCLC cell lines from Example 2 to both cisplatin and carboplatin to determine if the sensitivity of these six NSCLC cell lines to the two drugs are correlated.
(§1) Drug-DNA adduct formation and repair was measured by accelerator mass spectrometry.
(§2) These two cell lines were also cultured with a range of concentrations of cisplatin, carboplatin, gemcitabine, doxorubicin, methotrexate and vinblastine for 72 hours to determine IC50 for these other drugs (FIG. 16C). These drugs were chosen because of their frequent use in the treatment of bladder cancer.

5637R [2] = assay: MTT assay IC50, oxaliplatin-resistant bladder cancer sub-line; type: cell-based, human
Method: as §1
To confirm that 5637 was the original ATCC cell line, and that 5637R originated from the parental 5637 cell line, both cultures were sent to the ATCC Cell Line Authentication Service for cell verification per the ATCC protocol. More specifically, fifteen short tandem repeat (STR) loci plus the gender determining locus, amelogenin, were amplified using the commercially available PowerPlex® 16HS Kit from Promega.
as §2

[3] = test system: five bladder cancer cell lines (5637, T24, TCCSUP, HT1197, and J82); assay: oxaliplatin-DNA adducts by AMS in cell culture; type: cell-based; details: 4 hours
Method: Cells were seeded in 60-mm dishes at a density of 1×10^6 cells/dish and allowed to attach overnight in a 37° C. humidified atmosphere containing 5% C02. […] The cells were then washed twice with phosphate-buffered solution (PBS) and maintained thereafter with oxaliplatin-free culture media. DNA was harvested at hours 0, 2, 4, 8, 24 hours using the modified Wizard procedure described previously. Ten micrograms of DNA per sample was converted to graphite and measured by AMS for ^14C quantification. Triplicate sets of AMS experiments were performed and the data was plotted as time vs oxaliplatin-DNA adducts per 10^8 nt. […] Oxaliplatin-DNA monoadducts could be detected in all cell lines at all time points. […] Therefore, drug-DNA damage from microdoses of oxaliplatin are predictive of the extent of DNA modification caused by the therapeutic dose in cell culture.

5637R [4] = assay: oxaliplatin-DNA adduct formation and repair by AMS; type: cell-based, human
Method: (§3) To characterize the oxaliplatin-DNA adduct frequency in these cell lines, cells from each cell line were seeded in 60-mm dishes at a density of 1×10^6 cells/dish and allowed to attach overnight in a 37° C. humidified atmosphere containing 5% CO2. […] The cells were then washed twice with phosphate-buffered solution (PBS) and maintained thereafter with oxaliplatin-free culture media. DNA was harvested at hours 0, 2, 4, 8, 24, 28 and 48 hours using a Promega Wizard DNA Purification Kit. Ten micrograms of DNA per sample was converted to graphite and measured by AMS for ^14C quantification. Triplicate sets of AMS experiments were performed and the data was plotted as time vs oxaliplatin-DNA adducts per 10^8 nt.

5637 [5] = assay: oxaliplatin-DNA adduct formation and repair by AMS; type: cell-based, human
Method: as §3

[6] = human plasma pharmacokinetics of [14C]oxaliplatin microdose; type: in vivo; details: metastatic breast cancer patient; IV microdose
Method: Peripheral blood specimens were drawn into BD Vacutainer CPT™ tubes with sodium heparin from the other arm at specific time points before and after the administration of the microdose. Plasma samples collected at −5 min, 5 min, 15 min, 30 min, 2 h, 4 h, 8 h, 24 h, and 48 h post microdose injection were analyzed by liquid scintillation counting (FIG. 17A).

PBMC = assay: microdose-induced oxaliplatin-DNA adducts in patients; type: in vivo, human
Method: The plasma samples were additionally processed to isolate PBMC, and the DNA was extracted and analyzed using AMS to calculate the oxaliplatin-DNA adduct frequency (both monoadducts and diadducts combined) (FIG. 17B). […] These adduct levels then decrease substantially out to 48 hours post microdosing. […] Overall, the plasma PK and time course of oxaliplatin-DNA adduct formation and repair in PBMC allowed determination of the best time to dose patients prior to biopsy in order to maximize the oxaliplatin-DNA adduct formation, allow for repair in those patients with high repair capacity, minimize the risk of radioactive contamination of PBMC and tumor samples, and also minimize the risk of radioactive contamination of the operating room by blood-borne radiocarbon.
Plasma samples were collected, filtered, and counted by liquid scintillation counting to determine plasma oxaliplatin levels. […] The range of microdose-induced adduct levels (frequencies) for the three colorectal patients was 0.1-6 adducts per 10^8 nt.

[7] = test system: tumor biopsy sample from the bone marrow; assay: microdose-induced oxaliplatin-DNA adducts in patient tumor biopsy; type: in vivo, human; details: metastatic breast patient; 48 hours post microdose; n=2 repeats
Method: Therefore, a tumor biopsy sample from the bone marrow of this same metastatic breast patient was collected 48 hours post microdose administration and analyzed by AMS for oxaliplatin-DNA adducts. […] Therefore, in one embodiment, a useful range of oxaliplatin-DNA adduct frequency after microdosing is 0.5-50 adducts per 10^8 nt.

[8] = sterile solution in water, storage at −20° C.
Method: Radiolabeled carboplatin containing C^14 carbon atoms in the cyclobutane dicarboxylic acid group was formulated for human use as a sterile, pyrogen free solution at 5 mg/mL in water.

[9] = chemotherapy; cited from earlier work
[10] = safety of radiolabeled microdose in patients; details: IV microdose, 1% of the therapeutic dose
Method: Microdoses of the [^14C]Carboplatin were administered to human cancer patients as a diagnostic reagent, followed by full dose platinum-based chemotherapy and evaluation of response. Within four weeks of the [^14C]carboplatin microdose, these patients received standard of care chemotherapy for their disease, which included either carboplatin or cisplatin. The patient population consisted of non-small cell lung cancer patients (NSCLC), stage IV with measurable lesions, and bladder transitional cell carcinoma (TCC) patients, stage II disease and above for neoadjuvant treatment, or stage III and IV metastatic disease with measurable lesions for palliative chemotherapy. Patients were identified for this study as having measurable lesions using the Response Evaluation Criteria in Solid Tumor (RECIST), an Eastern Cooperative Oncology Group performance status of <2, and adequate bone marrow and vital organ function. PBMC and tumor tissue were collected from the patients for analysis of carboplatin-DNA monoadduct frequencies. Toxicity of the [^14C]carboplatin diagnostic reagent administered as a microdose was assessed using Common Terminology Criteria for Adverse Events (CTCAE). Toxicities of grade 3 and above were also collected for patient specific toxic response to full dose chemotherapy for correlation analysis to carboplatin-DNA monoadduct frequency. Patient response to chemotherapy was evaluated using the RECIST for correlation to carboplatin-DNA monoadduct frequency.
The dose of carboplatin in the diagnostic microdose was chosen to be sub-toxic and non-therapeutic, to minimize patient chemical and radiation exposure, and to result in AMS measurable carboplatin-DNA monoadducts. Nineteen patients have been administered at least one microdose of [^14C]carboplatin via IV infusion as a diagnostic reagent. Patient toxicity related to the microdose was monitored from the time of IV microdose until the patients received their first chemotherapy. […] The total radioactive dose given to a 75 kg patient after an IV microdose of [^14C]carboplatin is calculated to be 338 μCi. […]

5637R [11] = assay: CellTiter 96 Aqueous cell proliferation assay; type: cell-based; details: Homo sapiens, 72 hr continuous treatment
From the text: (§4) Correlation of IC50 to the AML induction drugs Dox and Ara-C were first performed with the adherent bladder cancer cell lines 5637 and 5637R for cytarabine and with the adherent ovarian cancer cell lines A2780 and A2780ADR for doxorubicin. Cell lines 5637 and 5637R (Ara-C resistant) have been described previously (20). A2780 and A2780ADR (doxorubicin resistant) were purchased from Sigma-Aldrich and grown as recommended. IC50 values were obtained by plating 4000 cells per well in 96-well plates the night before treatment, and then allowing the cells to adhere over night. Leukemia cell lines capable of continuous proliferation in suspension and having differential sensitivities to Dox and Ara-C were also obtained for correlation analysis. MV-4-11 (acute monocytic leukemia) and THP-1 (acute monocytic leukemia) human cell lines were purchased from American Type Culture Collection (ATCC, Manassas, Va.). MOLM-13 (acute myeloid leukemia) human cells were purchased from AddexBio (San Diego, Calif.). For leukemia cell lines (suspension cultures), approximately 8,000-11,000 cells were seeded per well in 96-well plates the day of treatment. MV-4-11 cells were grown in IMDM (Iscove's Modified Dulbecco's Media) with 10% FBS, 100 U/ml penicillin, and 100 μg/ml streptomycin. THP-1, A2780, and A2780ADR cells were grown in RPMI-1640 media with 10% FBS, 100 U/ml penicillin, and 100 μg/ml streptomycin. 5637, 5637R, and MOLM-13 cells were grown in RPMI-1640 media with 20% FBS, 100 U/ml penicillin, and 100 μg/ml streptomycin. All cells were cultured at 37° C. in a humidified incubator. The cells were then incubated with increasing doses of cytarabine or doxorubicin continuously for 72 hours. IC50 values were determined using the CellTiter 96 Aqueous Non-Radioactive Cell Proliferation Assay (Promega). […] As shown, 5637 and 5673R have differential sensitivity to cytarabine, while A2780 and A2780ADR have differential sensitivity to doxorubicin. The leukemic suspension cell lines also have differential sensitivity to these two drugs.

5637 [12] = assay: CellTiter 96 Aqueous cell proliferation assay; type: cell-based; details: Homo sapiens, 72 hr continuous treatment
From the text: as §4

MOLM-13 [13] = assay: CellTiter 96 Aqueous cell proliferation assay; type: cell-based; details: Homo sapiens, 72 hr continuous treatment
From the text: as §4

MV-4-11 = assay: CellTiter 96 Aqueous cell proliferation assay; type: cell-based; details: Homo sapiens, MV4-11, 72 hr continuous treatment
From the text: as §4

THP-1 [14] = assay: CellTiter 96 Aqueous cell proliferation assay; type: cell-based; details: Homo sapiens, 72 hr continuous treatment
From the text: as §4

[15] = test system: 5637 and 5637R bladder cancer cell lines; assay: cytarabine-DNA adducts by AMS, CIV and bolus type treatment; type: cell-based, human; details: low dose or high dose; CIV and bolus treatment regimens
Method: Sensitive and resistant bladder cancer cells were treated with Ara-C in culture. Two treatment conditions were used, one to mimic clinically continuous infusion (CIV) and one to mimic clinically bolus infusion (bolus infusions use a much higher Ara-c dose). The day before treatment, one million bladder cancer cells were seeded in 60-mm dishes and allowed to attach overnight. To simulate CIV treatment, the bladder cancer cell lines were exposed in growth medium with a low (10 nM) or a high (1 μM) dose of ARA-C supplemented with 8 nM ^14C-labeled ARA-C(1000 dpm/mL-20-0.4 mCi/mmol specific activity (Moravek Biochemicals, Inc.) over 24 h (FIG. 25A). At 24 hrs, the cells were harvested and washed for subsequent DNA isolation using the Wizard Genomic DNA Purification Kit. To simulate bolus treatment, the bladder cancer cell lines were exposed in growth medium with a low dose (3 μM) or a high dose ([…]; a highly toxic concentration for these cell lines) supplemented with 0.8 nM ^14C-labeled ARA-C (0.0001 mCi/mmol specific activity) for 4 h, followed by 20 h in drug-free media (FIG. 25B). After a 4-hour incubation, the cells were washed three times with PBS and cultured in drug-free media for an additional 20 hours. DNA from cells isolated at 24 hours was then purified. […] The ratios of ^14C to total C were measured by AMS, and drug-DNA adducts per ten million nucleotides were calculated.

MOLM-13 [16] = assay: ARA-C incorporation into DNA by AMS; type: cell-based, human; details: MOLM-13 (most sensitive); 1.6 nM or 16 nM ARA-C 24 hrs
Method: (§5) MV-4-11, THP-1, and MOLM-13 cells are human, immortalized, myelogenous leukemia cell lines that proliferate continuously in suspension. These cell lines serve as a cell culture model for AML. Suspension cultures consisting of two million cells in […] culture dishes were treated with ARA-C for 24 hrs (to simulate CIV) prior to DNA isolation. The cultures were dosed with a low (1.6 nM) or a high (16 nM) dose of ARA-C supplemented with 0.8 nM ^14C-labeled ARA-C (100 dpm/mL, 2.4-16.7 mCi/mmol specific activity), and isolated DNA was analyzed by AMS to determine drug-DNA adduct levels. The suspension cell lines were dosed in primary cell media (IMDM+20% BIT9500 serum substitute, 20 ng/mL IL-3, 10 ng/mL IL-6, 20 ng/mL G-CSF, 20 ng/mL GM-CSF, 50 ng/mL SCF) to mimic the dosing conditions that will be used for patient-derived AML samples. This media is used for short term culturing of primary AML cells that are previously collected from patients, frozen and stored in a biobank.

THP-1 [17] = assay: ARA-C incorporation into DNA by AMS; type: cell-based, human; details: THP-1 (least sensitive); 1.6 nM or 16 nM ARA-C 24 hrs
Method: as §5

[18] = 24 hour culture without oxaliplatin

## O=C1[O][Pt]2([NH][C@@H]3CCCC[C@H]3[NH]2)[O]C1=O [oxaliplatin]
5637 [1]
  IC50: 2450 nM
5637R [2]
  increase of IC50 of 5637R compared to parental 5637: approximately 10 fold
5637R [2]; 5637R, 72 hours
  IC50: 27.3 µM
[3]; microdose 0.1 μM oxaliplatin
  DNA damage concentrations (oxaliplatin-DNA adducts): 50-100 adducts per 10^8 nt
[3]; therapeutic dose 10 μM oxaliplatin
  DNA damage concentrations (oxaliplatin-DNA adducts): 5,000-10,000 adducts per 10^8 nt
5637R [4]; 10 μM for 24 hours
  oxaliplatin-DNA adducts at 24 hours: 259.2±37.3 adducts per 10^8 nucleotide
5637R [4]; [18]
  repair rate: 3.48±0.15 adducts per 10^8 nucleotide-hour
5637R [4]; 48 hour study period
  area under curve (AUC) of oxaliplatin-DNA adducts: 9,426±2457 adducts per 10^8 nucleotide-hour
5637 [5]; 10 μM for 24 hours
  oxaliplatin-DNA adducts at 24 hours: 710.0±32.2 adducts per 10^8 nucleotide
5637 [5]; [18]
  repair rate: 1.34±0.30 adducts per 10^8 nucleotides-hour
5637 [5]; 48 hour study period
  area under curve (AUC) of oxaliplatin-DNA adducts: 27,720±2,985 adducts per 10^8 nucleotide-hour
[6]
  T1/2 (α), first (fast) phase: 13.3 min
PBMC; metastatic breast cancer patient, first 4 hours after microdose
  maximum oxaliplatin-DNA adducts in PBMC: 8 adducts per 10^8 nt
PBMC; three colorectal patients, PBMC
  range of microdose-induced adduct levels (frequencies): 0.1-6 adducts per 10^8 nt
[7]
  oxaliplatin-DNA adduct frequency: 14.6±4.9 per 10^8 nt
[8]
  loss of radiopurity per year: < 2%
[9]
  peak human oxaliplatin plasma concentration during chemotherapy: 10 µM
[10]
  clinical side effects: None of the clinical side effects associated with standard therapeutic doses of oxaliplatin were observed

## Nc1ccn([C@@H]2O[C@H](CO)[C@@H](O)[C@@H]2O)c(=O)n1 [cytarabine]
5637R [11]
  IC50: 60.1 µM
5637 [12]
  IC50: 5.69 µM
MOLM-13 [13]
  IC50: 18 nM
MV-4-11
  IC50: 353 nM
THP-1 [14]
  IC50: 4.4 µM
[15]
  cytarabine-DNA adducts in resistant 5637R compared to parent 5637: fewer cytarabine-DNA adducts
MOLM-13 [16]
  levels of ARA-C incorporation among three AML cell lines: highest levels of ARA-C incorporation
THP-1 [17]
  levels of ARA-C incorporation among three AML cell lines: lowest levels of ARA-C incorporation
